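Each compound was tested at five concentrations against cells in 96-well plates for 48 hours. Definition used: TGI = concentration required for complete inhibition of growth.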
Assays:
Experiment in all cases: inhibition of tumour cell growth, NCI panel, 48 h
786-0 renal = system: 786-0 renal
A498 renal = system: A498 renal
A549 NSCLC = system: A549 NSCLC
ACHN renal = system: ACHN renal
BT-549 breast = system: BT-549 breast
CAKI-1 renal = system: CAKI-1 renal
CCRF-CEM leukemia = system: CCRF-CEM leukemia
COLO 205 colon = system: COLO 205 colon
DU-145 prostate = system: DU-145 prostate
EKVX NSCLC = system: EKVX NSCLC
HCC-2998 colon = system: HCC-2998 colon
HCT-116 colon = system: HCT-116 colon
HCT-15 colon = system: HCT-15 colon
HL-60(TB) leukemia = system: HL-60(TB) leukemia
HOP-62 NSCLC = system: HOP-62 NSCLC
HOP-92 NSCLC = system: HOP-92 NSCLC
HS 578T breast = system: HS 578T breast
HT29 colon = system: HT29 colon
IGROV1 ovarian = system: IGROV1 ovarian
K-562 leukemia = system: K-562 leukemia
KM12 colon = system: KM12 colon
LOX IMVI melanoma = system: LOX IMVI melanoma
M14 melanoma = system: M14 melanoma
MALME-3M melanoma = system: MALME-3M melanoma
MCF7 breast = system: MCF7 breast
MDA-MB-231 breast = system: MDA-MB-231 breast
MDA-MB-435 = system: MDA-MB-435
MDA-N = system: MDA-N
MOLT-4 leukemia = system: MOLT-4 leukemia
NCI-H226 lung = system: NCI-H226 lung
NCI-H23 lung = system: NCI-H23 lung
NCI-H460 lung = system: NCI-H460 lung
NCI-H522 lung = system: NCI-H522 lung
NCI/ADR-RES ovarian = system: NCI/ADR-RES ovarian
OVCAR-3 ovarian = system: OVCAR-3 ovarian
OVCAR-4 ovarian = system: OVCAR-4 ovarian
OVCAR-5 ovarian = system: OVCAR-5 ovarian
OVCAR-8 ovarian = system: OVCAR-8 ovarian
PC-3 prostate = system: PC-3 prostate
RPMI-8226 leukemia = system: RPMI-8226 leukemia
RXF 393 renal = system: RXF 393 renal
SF-268 CNS = system: SF-268 CNS
SF-295 CNS = system: SF-295 CNS
SF-539 CNS = system: SF-539 CNS
SK-MEL-2 melanoma = system: SK-MEL-2 melanoma
SK-MEL-28 melanoma = system: SK-MEL-28 melanoma
SK-MEL-5 melanoma = system: SK-MEL-5 melanoma
SK-OV-3 ovarian = system: SK-OV-3 ovarian
SN12C renal = system: SN12C renal
SNB-19 CNS = system: SNB-19 CNS
SNB-75 CNS = system: SNB-75 CNS
SR leukemia = system: SR leukemia
SW-620 colon = system: SW-620 colon
T-47D breast = system: T-47D breast
TK-10 renal = system: TK-10 renal
U251 CNS = system: U251 CNS
UACC-257 melanoma = system: UACC-257 melanoma
UACC-62 melanoma = system: UACC-62 melanoma
UO-31 renal = system: UO-31 renal

## CCC(=O)/C=C/c1ccccc1
786-0 renal
  TGI: > 100 µM
A498 renal
  TGI: > 100 µM
A549 NSCLC
  TGI: > 100 µM
ACHN renal
  TGI: > 100 µM
BT-549 breast
  TGI: > 100 µM
CAKI-1 renal
  TGI: > 100 µM
CCRF-CEM leukemia
  TGI: > 100 µM
COLO 205 colon
  TGI: > 100 µM
DU-145 prostate
  TGI: > 100 µM
EKVX NSCLC
  TGI: > 100 µM
HCC-2998 colon
  TGI: > 100 µM
HCT-116 colon
  TGI: > 100 µM
HCT-15 colon
  TGI: > 100 µM
HL-60(TB) leukemia
  TGI: > 100 µM
HOP-62 NSCLC
  TGI: > 100 µM
HOP-92 NSCLC
  TGI: > 100 µM
HS 578T breast
  TGI: > 100 µM
HT29 colon
  TGI: > 100 µM
IGROV1 ovarian
  TGI: > 100 µM
K-562 leukemia
  TGI: > 100 µM
KM12 colon
  TGI: 42.9 µM
LOX IMVI melanoma
  TGI: > 100 µM
M14 melanoma
  TGI: > 100 µM
MALME-3M melanoma
  TGI: > 100 µM
MCF7 breast
  TGI: > 100 µM
MDA-MB-231 breast
  TGI: > 100 µM
MDA-MB-435
  TGI: > 100 µM
MDA-N
  TGI: > 100 µM
MOLT-4 leukemia
  TGI: 89.2 µM
NCI-H226 lung
  TGI: > 100 µM
NCI-H23 lung
  TGI: > 100 µM
NCI-H460 lung
  TGI: > 100 µM
NCI-H522 lung
  TGI: > 100 µM
NCI/ADR-RES ovarian
  TGI: > 100 µM
OVCAR-3 ovarian
  TGI: > 100 µM
OVCAR-4 ovarian
  TGI: > 100 µM
OVCAR-5 ovarian
  TGI: > 100 µM
OVCAR-8 ovarian
  TGI: > 100 µM
PC-3 prostate
  TGI: > 100 µM
RPMI-8226 leukemia
  TGI: > 100 µM
RXF 393 renal
  TGI: > 100 µM
SF-268 CNS
  TGI: > 100 µM
SF-295 CNS
  TGI: > 100 µM
SF-539 CNS
  TGI: > 100 µM
SK-MEL-2 melanoma
  TGI: > 100 µM
SK-MEL-28 melanoma
  TGI: > 100 µM
SK-MEL-5 melanoma
  TGI: > 100 µM
SK-OV-3 ovarian
  TGI: > 100 µM
SN12C renal
  TGI: > 100 µM
SNB-19 CNS
  TGI: > 100 µM
SNB-75 CNS
  TGI: > 100 µM
SR leukemia
  TGI: > 100 µM
SW-620 colon
  TGI: > 100 µM
T-47D breast
  TGI: > 100 µM
TK-10 renal
  TGI: > 100 µM
U251 CNS
  TGI: > 100 µM
UACC-257 melanoma
  TGI: > 100 µM
UACC-62 melanoma
  TGI: > 100 µM
UO-31 renal
  TGI: > 100 µM

## CC(=O)O[C@H]1C(=O)[C@@]2(C)[C@H]([C@H](OC(=O)c3ccccc3)[C@]3(O)C[C@H](OC(=O)[C@H](O)[C@@H](NC(=O)c4ccccc4)c4ccccc4C)C(C)=C1C3(C)C)[C@]1(OC(C)=O)CO[C@@H]1C[C@@H]2O
786-0 renal
  TGI: 12.8 µM
A498 renal
  TGI: 9.4 µM
A549 NSCLC
  TGI: > 25 µM
ACHN renal
  TGI: > 25 µM
BT-549 breast
  TGI: > 11.8 µM
CAKI-1 renal
  TGI: > 25 µM
CCRF-CEM leukemia
  TGI: 2.7 µM
COLO 205 colon
  TGI: 1.79 µM
DU-145 prostate
  TGI: > 20.6 µM
EKVX NSCLC
  TGI: > 25 µM
HCC-2998 colon
  TGI: 7.11 µM
HCT-116 colon
  TGI: 9.15 µM
HCT-15 colon
  TGI: > 25 µM
HL-60(TB) leukemia
  TGI: 0.228 µM
HOP-62 NSCLC
  TGI: > 25 µM
HOP-92 NSCLC
  TGI: 24.2 µM
HS 578T breast
  TGI: 1.73 µM
HT29 colon
  TGI: 18.4 µM
IGROV1 ovarian
  TGI: > 25 µM
K-562 leukemia
  TGI: 5.08 µM
KM12 colon
  TGI: 5.75 µM
LOX IMVI melanoma
  TGI: > 25 µM
M14 melanoma
  TGI: 3.02 µM
MALME-3M melanoma
  TGI: > 24 µM
MCF7 breast
  TGI: > 16.1 µM
MDA-MB-231 breast
  TGI: > 16.1 µM
MDA-MB-435
  TGI: 0.289 µM
MDA-N
  TGI: 0.392 µM
MOLT-4 leukemia
  TGI: 5.35 µM
NCI-H226 lung
  TGI: > 25 µM
NCI-H23 lung
  TGI: > 11.6 µM
NCI-H460 lung
  TGI: > 11.3 µM
NCI-H522 lung
  TGI: 4.29 µM
NCI/ADR-RES ovarian
  TGI: > 25 µM
OVCAR-3 ovarian
  TGI: 4.87 µM
OVCAR-4 ovarian
  TGI: > 23.3 µM
OVCAR-5 ovarian
  TGI: 4.74 µM
OVCAR-8 ovarian
  TGI: 12.7 µM
PC-3 prostate
  TGI: > 9.4 µM
RPMI-8226 leukemia
  TGI: 1.03 µM
RXF 393 renal
  TGI: 3.97 µM
SF-268 CNS
  TGI: > 25 µM
SF-295 CNS
  TGI: > 9.21 µM
SF-539 CNS
  TGI: 1.93 µM
SK-MEL-2 melanoma
  TGI: 11.5 µM
SK-MEL-28 melanoma
  TGI: > 15.2 µM
SK-MEL-5 melanoma
  TGI: 3.05 µM
SK-OV-3 ovarian
  TGI: > 12.7 µM
SN12C renal
  TGI: > 25 µM
SNB-19 CNS
  TGI: > 25 µM
SNB-75 CNS
  TGI: 10.1 µM
SR leukemia
  TGI: 4.06 µM
SW-620 colon
  TGI: > 25 µM
T-47D breast
  TGI: > 25 µM
TK-10 renal
  TGI: 18.9 µM
U251 CNS
  TGI: 6 µM
UACC-257 melanoma
  TGI: > 11.7 µM
UACC-62 melanoma
  TGI: > 15.8 µM
UO-31 renal
  TGI: > 24.2 µM

Reference: PubChem BioAssay (NCI)
